Reference: PubChem BioAssay (NCI)
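Cells were grown in 96-well plates and exposed to each compound for 48 hours at five concentrations; endpoints were interpolated linearly between bracketing concentrations, or set to the highest concentration if not reached. GI50: concentration for 50% inhibition of growth. The concentration for full growth arrest is given as TGI.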

How the values were obtained:
Assay in all cases: NCI tumour cell line growth inhibition, 48 h
TK-10 renal = tested on: TK-10 renal
SNB-75 CNS = tested on: SNB-75 CNS
OVCAR-4 ovarian = tested on: OVCAR-4 ovarian
SK-MEL-5 melanoma = tested on: SK-MEL-5 melanoma
SF-295 CNS = tested on: SF-295 CNS
HCT-116 colon = tested on: HCT-116 colon
SNB-19 CNS = tested on: SNB-19 CNS
CAKI-1 renal = tested on: CAKI-1 renal
UO-31 renal = tested on: UO-31 renal
786-0 renal = tested on: 786-0 renal

NC(=O)c1cccc(-c2cc(C(N)=O)ccc2Cl)c1
GI50 (TK-10 renal): 9.12 µM | TGI (TK-10 renal): > 100 µM | GI50 (SNB-75 CNS): 1100 nM | TGI (SNB-75 CNS): 5.5 µM | GI50 (OVCAR-4 ovarian): 9.21 µM | TGI (OVCAR-4 ovarian): > 100 µM | GI50 (SK-MEL-5 melanoma): 3.62 µM | TGI (SK-MEL-5 melanoma): 14.8 µM | GI50 (SF-295 CNS): 2410 nM | TGI (SF-295 CNS): 21.2 µM | GI50 (HCT-116 colon): 2350 nM | TGI (HCT-116 colon): > 100 µM | GI50 (SNB-19 CNS): 2.89 µM | TGI (SNB-19 CNS): > 100 µM | GI50 (CAKI-1 renal): 2660 nM | TGI (CAKI-1 renal): > 100 µM | GI50 (UO-31 renal): 4610 nM | TGI (UO-31 renal): > 100 µM | GI50 (786-0 renal): 5.37 µM | TGI (786-0 renal): > 100 µM

NC(=O)C12CC3CC(CC(Br)(C3)C1)C2
TGI (TK-10 renal): > 100 µM | TGI (SNB-75 CNS): > 100 µM | TGI (OVCAR-4 ovarian): > 100 µM | TGI (SK-MEL-5 melanoma): > 100 µM | TGI (SF-295 CNS): > 100 µM | TGI (HCT-116 colon): > 100 µM | TGI (SNB-19 CNS): > 100 µM | TGI (CAKI-1 renal): > 100 µM | TGI (UO-31 renal): > 100 µM | TGI (786-0 renal): > 100 µM

[N-]=[N+]=NC[C@H]1OCO[C@H](CN=[N+]=[N-])[C@H]2OCCOCCOc3ccccc3OCCOCCO[C@@H]21
TGI (TK-10 renal): > 100 µM | TGI (SNB-75 CNS): > 100 µM | TGI (OVCAR-4 ovarian): > 100 µM | TGI (SK-MEL-5 melanoma): > 100 µM | TGI (SF-295 CNS): > 100 µM | TGI (HCT-116 colon): > 100 µM | TGI (SNB-19 CNS): > 100 µM | TGI (CAKI-1 renal): > 100 µM | TGI (UO-31 renal): > 100 µM | TGI (786-0 renal): > 100 µM

CC1=C(Cl)C[C@@H](/C(C)=C\Cl)O[C@@]1(O)C(Br)Br
TGI (TK-10 renal): > 100 µM | TGI (SNB-75 CNS): > 100 µM | TGI (OVCAR-4 ovarian): > 100 µM | TGI (SK-MEL-5 melanoma): 54.9 µM | TGI (SF-295 CNS): > 100 µM | TGI (HCT-116 colon): > 100 µM | TGI (SNB-19 CNS): > 100 µM | TGI (CAKI-1 renal): 35.4 µM | TGI (UO-31 renal): 72.7 µM | TGI (786-0 renal): > 100 µM

Cc1ccc(N=C2SC(c3ccc(C)cc3)(c3ccc(C)cc3)c3ccccc32)cc1
TGI (TK-10 renal): > 100 µM | TGI (SNB-75 CNS): > 100 µM | TGI (OVCAR-4 ovarian): > 100 µM | TGI (SK-MEL-5 melanoma): > 100 µM | TGI (SF-295 CNS): > 100 µM | TGI (HCT-116 colon): > 100 µM | TGI (SNB-19 CNS): > 100 µM | TGI (CAKI-1 renal): > 100 µM | TGI (UO-31 renal): > 100 µM | TGI (786-0 renal): > 100 µM

CCOP(=O)(OCC)C1(O)CC(n2cc(C)c(=O)[nH]c2=O)OC1CO (stereo not given)
TGI (TK-10 renal): > 100 µM | TGI (SNB-75 CNS): > 100 µM | TGI (OVCAR-4 ovarian): > 100 µM | TGI (SK-MEL-5 melanoma): > 100 µM | TGI (SF-295 CNS): > 100 µM | TGI (HCT-116 colon): > 100 µM | TGI (SNB-19 CNS): > 100 µM | TGI (CAKI-1 renal): > 100 µM | TGI (UO-31 renal): > 100 µM | TGI (786-0 renal): > 100 µM

CC1C2CC(C/C2=N/O)C1(C)C (stereo not given)
TGI (TK-10 renal): > 100 µM | TGI (SNB-75 CNS): > 100 µM | TGI (OVCAR-4 ovarian): > 100 µM | TGI (SK-MEL-5 melanoma): > 100 µM | TGI (SF-295 CNS): > 100 µM | TGI (HCT-116 colon): > 100 µM | TGI (SNB-19 CNS): > 100 µM | TGI (CAKI-1 renal): > 100 µM | TGI (UO-31 renal): > 100 µM | TGI (786-0 renal): > 100 µM

COc1ccc2c(c1)/C(=C\c1c[nH]c3ccc(OC)cc13)C(=O)N2
GI50 (TK-10 renal): 3.68 µM | TGI (TK-10 renal): 13.3 µM | GI50 (SNB-75 CNS): 1940 nM | TGI (SNB-75 CNS): 9.22 µM | GI50 (OVCAR-4 ovarian): 3.5 µM | TGI (OVCAR-4 ovarian): 22.8 µM | GI50 (SK-MEL-5 melanoma): 3.02 µM | TGI (SK-MEL-5 melanoma): 12.5 µM | GI50 (SF-295 CNS): 3670 nM | TGI (SF-295 CNS): 16.8 µM | GI50 (HCT-116 colon): 2450 nM | TGI (HCT-116 colon): 10.6 µM | GI50 (SNB-19 CNS): 6.66 µM | TGI (SNB-19 CNS): 20.1 µM | GI50 (CAKI-1 renal): 2130 nM | TGI (CAKI-1 renal): 13.3 µM | GI50 (UO-31 renal): 2530 nM | TGI (UO-31 renal): 11.9 µM | GI50 (786-0 renal): 5.35 µM | TGI (786-0 renal): 17.6 µM

Nc1ncnc2c1nnn2C1C=C(CO)C(O)C1O (stereo not given)
TGI (TK-10 renal): > 100 µM | TGI (SNB-75 CNS): > 96.1 µM | TGI (OVCAR-4 ovarian): > 100 µM | TGI (SK-MEL-5 melanoma): > 100 µM | TGI (SF-295 CNS): > 100 µM | TGI (HCT-116 colon): > 53.3 µM | TGI (SNB-19 CNS): > 100 µM | TGI (CAKI-1 renal): > 100 µM | TGI (UO-31 renal): > 100 µM | TGI (786-0 renal): > 100 µM

CCOC(=O)C1=C(C)N2C(=NC3=C(CCC/C3=C\c3ccc(Cl)cc3)C2c2ccc(Cl)cc2)S1 (stereo not given)
GI50 (TK-10 renal): 5.23 µM | TGI (TK-10 renal): 65.9 µM | GI50 (SNB-75 CNS): 9110 nM | TGI (SNB-75 CNS): 51.3 µM | GI50 (OVCAR-4 ovarian): 2.85 µM | TGI (OVCAR-4 ovarian): 19.2 µM | GI50 (SK-MEL-5 melanoma): 2.93 µM | TGI (SK-MEL-5 melanoma): 11.4 µM | GI50 (SF-295 CNS): 2850 nM | TGI (SF-295 CNS): 8.76 µM | GI50 (HCT-116 colon): 1400 nM | TGI (HCT-116 colon): 2.7 µM | GI50 (SNB-19 CNS): 3.35 µM | TGI (SNB-19 CNS): > 100 µM | GI50 (CAKI-1 renal): 5080 nM | TGI (CAKI-1 renal): > 100 µM | GI50 (UO-31 renal): 1700 nM | TGI (UO-31 renal): 3.85 µM | GI50 (786-0 renal): 2 µM | TGI (786-0 renal): 4.74 µM
